# Results reported in article PMC4362760, “JAK2^V617F Drives Mcl-1 Expression and Sensitizes Hematologic Cell Lines to Dual Inhibition of JAK2 and Bcl-xL” (PLoS ONE, 2015).
# What was measured:
# [1] = system: SET-2 cells; experiment: alamarBlue cell viability, JAKi-I/ABT-263 combination, 72 hr, SET-2; type: cell-based; conditions: SET-2, 72h, Jaki-1 0 uM
# Protocol: (§1) Transfection of siRNAs was performed using Lipofectamine RNAiMAX according to the manufacturer’s recommendations. […] Caspase-3 activity was determined using the Caspase-GLO 3/7 Assay (Promega) in parallel with the CellTiter-GLO viability assay (Promega). The data are expressed as Caspase-3/7 activity divided by cell viability.
# (§2) Caspase-3 activity was determined at each time point. Data are from duplicate samples and are representative of at least three independent experiments. (D-G) Cells were treated in combination as indicated, and cell viability was determined after 72 hr. Data are means of duplicate determinations, and are representative of at least three independent experiments. […] Drugs were added simultaneously, and cell viability was determined after 72 hr. The data were then analyzed using the drug-drug interaction model of Bliss additivity^16 to define dose combinations that were synergistic (values >15; red), antagonistic (values <-15; blue), or without effect (-15<values<15; gray). (I) Model of JAK2/Bcl-2 family inhibitor synergy. JAK2^V617F constitutively phosphorylates and activates STAT3/5, thus enforcing expression of the transcriptional target, Mcl-1. Mcl-1 collaborates with Bcl-XL to oppose apoptosis and support viability.
# (§3) Supplementary file pone.0114363.s006.xls: S6 Dataset Cells were treated in combination as indicated, and cell viability was determined using alamarBlue after 72 hr. Data are means of duplicate determinations, and are representative of at least three independent experiments. (XLS) Click here for additional data file.
# [2] = system: Bim binding to Bcl-XL; experiment: Bim immunoblot of lysates and Bcl-XL immunoprecipitates; type: cell-based
# Protocol: For immunoprecipitation, lysates were prepared in CHAPS lysis buffer and 2 mg of cell lysate was mixed with at least 8 μg of immunoprecipitating antibody overnight at 4°C. The following day, 30 μl of a Protein A- or Protein G-agarose slurry was added for an additional 2 hr. Immunoprecipitates were washed three times in CHAPS lysis buffer, and heated in 1.5x loading buffer at 95°C for 5 min.
# as §2
# [3] = system: HEL cells; experiment: alamarBlue cell viability, JAKi-I/ABT-263 combination, 72 hr, HEL; type: cell-based; conditions: Jaki-1 0 uM
# Protocol: as §1, §2, §3
# [4] = system: Caspase-3/7; experiment: Caspase-GLO 3/7 Assay, Caspase-3/7 activity divided by cell viability, fold of control; type: cell-based; conditions: for caspase-3 activity, single agent: JAKi-I or ABT-263 alone
# [5] = target: Rock2 (Homo sapiens, UniProt O75116); experiment: TR-FRET Kinome Rock2; type: binding; conditions: Rock2 Invitrogen .012(Subs Conc)
# Rock2, sequence (O75116 whole entry): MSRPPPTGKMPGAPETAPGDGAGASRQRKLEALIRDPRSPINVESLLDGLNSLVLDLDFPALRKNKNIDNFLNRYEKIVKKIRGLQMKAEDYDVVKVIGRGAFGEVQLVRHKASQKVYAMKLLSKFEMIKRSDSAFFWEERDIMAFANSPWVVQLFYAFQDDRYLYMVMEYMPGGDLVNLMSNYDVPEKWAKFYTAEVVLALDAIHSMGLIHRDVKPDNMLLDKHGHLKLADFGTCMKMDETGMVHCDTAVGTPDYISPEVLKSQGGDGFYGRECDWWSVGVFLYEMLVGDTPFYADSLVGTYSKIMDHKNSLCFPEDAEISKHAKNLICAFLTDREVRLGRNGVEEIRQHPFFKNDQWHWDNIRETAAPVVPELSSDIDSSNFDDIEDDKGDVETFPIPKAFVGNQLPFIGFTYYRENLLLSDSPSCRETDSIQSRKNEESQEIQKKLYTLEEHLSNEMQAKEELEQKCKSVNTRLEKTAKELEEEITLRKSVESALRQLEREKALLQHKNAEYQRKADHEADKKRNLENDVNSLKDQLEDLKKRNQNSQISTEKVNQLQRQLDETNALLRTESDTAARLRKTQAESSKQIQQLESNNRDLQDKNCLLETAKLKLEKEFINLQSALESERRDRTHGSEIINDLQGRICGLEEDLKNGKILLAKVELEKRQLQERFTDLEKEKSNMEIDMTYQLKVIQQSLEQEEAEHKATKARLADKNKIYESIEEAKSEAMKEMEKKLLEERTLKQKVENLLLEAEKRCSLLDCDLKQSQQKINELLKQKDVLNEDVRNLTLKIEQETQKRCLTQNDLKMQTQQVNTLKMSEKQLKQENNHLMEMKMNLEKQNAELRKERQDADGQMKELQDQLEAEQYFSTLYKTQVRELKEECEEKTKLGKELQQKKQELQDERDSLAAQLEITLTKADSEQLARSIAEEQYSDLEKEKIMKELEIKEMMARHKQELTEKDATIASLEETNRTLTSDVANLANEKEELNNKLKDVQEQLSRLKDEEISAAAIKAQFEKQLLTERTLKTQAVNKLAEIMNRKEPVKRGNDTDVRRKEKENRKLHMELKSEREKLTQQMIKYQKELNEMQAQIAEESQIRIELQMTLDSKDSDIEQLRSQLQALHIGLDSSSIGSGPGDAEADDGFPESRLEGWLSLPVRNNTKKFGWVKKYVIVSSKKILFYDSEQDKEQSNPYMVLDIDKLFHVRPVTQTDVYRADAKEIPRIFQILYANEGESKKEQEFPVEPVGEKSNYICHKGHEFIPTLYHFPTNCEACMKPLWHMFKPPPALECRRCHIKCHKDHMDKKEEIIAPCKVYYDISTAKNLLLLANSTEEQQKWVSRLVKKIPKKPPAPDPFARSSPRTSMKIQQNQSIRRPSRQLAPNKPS
# Description: (§4) (XLS) Click here for additional data file.
# [6] = target: BRAF (Homo sapiens, UniProt P15056); experiment: TR-FRET Kinome BRAF; type: binding; conditions: BRAF Invitrogen .065(Subs Conc)
# BRAF, sequence (P15056 whole entry): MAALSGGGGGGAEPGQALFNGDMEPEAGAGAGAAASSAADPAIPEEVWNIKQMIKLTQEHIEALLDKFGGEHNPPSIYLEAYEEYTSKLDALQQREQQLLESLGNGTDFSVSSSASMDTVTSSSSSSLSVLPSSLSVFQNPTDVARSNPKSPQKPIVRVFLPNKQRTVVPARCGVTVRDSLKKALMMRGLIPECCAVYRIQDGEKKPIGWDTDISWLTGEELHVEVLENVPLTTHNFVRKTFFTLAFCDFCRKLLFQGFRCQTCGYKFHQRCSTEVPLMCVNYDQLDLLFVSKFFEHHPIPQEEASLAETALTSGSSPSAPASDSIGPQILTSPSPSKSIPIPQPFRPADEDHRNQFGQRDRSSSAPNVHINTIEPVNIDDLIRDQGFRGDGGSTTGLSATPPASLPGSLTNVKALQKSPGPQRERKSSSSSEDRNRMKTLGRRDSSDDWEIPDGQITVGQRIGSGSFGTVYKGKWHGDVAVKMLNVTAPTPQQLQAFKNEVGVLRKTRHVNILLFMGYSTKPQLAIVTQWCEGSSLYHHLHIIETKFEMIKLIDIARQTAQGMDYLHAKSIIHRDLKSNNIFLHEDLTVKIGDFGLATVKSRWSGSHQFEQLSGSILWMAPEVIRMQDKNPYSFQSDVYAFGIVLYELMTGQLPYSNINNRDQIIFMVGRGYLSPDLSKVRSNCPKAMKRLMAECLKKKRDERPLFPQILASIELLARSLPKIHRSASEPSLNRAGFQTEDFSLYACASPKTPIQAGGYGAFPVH
# Description: as §4
# [7] = system: Mcl-1; experiment: Mcl-1 protein level by immunoblotting, quantitation by LiCor Odyssey Imager; type: cell-based
# Protocol: SET-2, HEL, MV4;11, and K562 cells were obtained from ATCC and cultured as recommended. UKE-1 cells were purchased from Walter Fiedler (University of Hamburg). Cell lysates were either prepared using CHAPS lysis buffer (10 mM HEPES, pH 7.4, 150 mM NaCl, 1% CHAPS) or cell extraction buffer containing 1% Triton X-100, 0.1% SDS, and 0.5% deoxycholate. All buffers were supplemented with protease and phosphatase inhibitor cocktails prior to use.
# (§5) Fig 1 Regulation of Mcl-1 and Bcl-XL by JAK2 ^V617F. […] Tyrosine phoshorylation of STAT3 and STAT5 was determined by immunoblotting. […] Constitutive tyrosine phosphorylation of STAT3 and STAT5 was determined by immunoblotting. […] Data represent means +/- standard deviation for two independent determinations each performed in triplicate. […] (G) Quantification of the data shown in (F). Data are expressed as the ratio of intensity of Mcl-1/β-actin for each time point. […] Data are means of duplicate samples and are representative of two independent experiments.
# Supplementary file pone.0114363.s003.xls: S3 Dataset Quantitation of western blot data by LiCor Odyssey Imager. (XLS) Click here for additional data file.
# [8] = target: T1, ACVR1 (Homo sapiens, UniProt Q04771); experiment: TR-FRET Kinome ACVR1; type: binding; conditions: ACVR1 Invitrogen .05(Subs Conc)
# T1 construct: purchased Invitrogen
# Description: as §4
# [9] = system: Bcl-XL mRNA; experiment: Bcl-XL mRNA abundance by qPCR in SET-2, UKE-1, HEL, MV4;11, K562 cells; type: cell-based; conditions: for BCLxl % Control: treated vs non-treated (100.0); for BCLxl Mean QTY: treated, normalised mRNA quantity by qPCR
# Protocol: as §5
# Data represent means +/- standard deviation for two independent determinations each performed in triplicate (data in Summary tab). Individual experimental data in exp 051409 and repeat Mcl1 tabs. (XLS) Click here for additional data file.
# [10] = target: SGK1 (Homo sapiens, UniProt O00141); experiment: TR-FRET Kinome SGK1; type: binding; conditions: SGK1 Millipore .1(Subs Conc)
# SGK1, sequence (O00141 whole entry): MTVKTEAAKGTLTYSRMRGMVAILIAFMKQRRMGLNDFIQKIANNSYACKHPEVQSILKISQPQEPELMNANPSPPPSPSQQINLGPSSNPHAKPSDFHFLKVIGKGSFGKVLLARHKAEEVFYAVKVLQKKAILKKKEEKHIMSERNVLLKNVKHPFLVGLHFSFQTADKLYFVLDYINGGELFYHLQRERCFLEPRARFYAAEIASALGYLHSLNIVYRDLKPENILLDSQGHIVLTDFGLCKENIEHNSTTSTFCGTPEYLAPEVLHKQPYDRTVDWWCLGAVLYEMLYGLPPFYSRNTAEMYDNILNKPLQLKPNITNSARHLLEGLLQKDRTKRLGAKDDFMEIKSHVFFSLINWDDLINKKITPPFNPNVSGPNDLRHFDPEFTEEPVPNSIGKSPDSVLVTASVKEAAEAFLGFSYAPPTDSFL
# Description: as §4
# [11] = target: STK16 (Homo sapiens, UniProt O75716); experiment: TR-FRET Kinome STK16; type: binding; conditions: STK16 Invitrogen IVGN Tracer .05(Subs Conc)
# STK16, sequence (O75716 whole entry): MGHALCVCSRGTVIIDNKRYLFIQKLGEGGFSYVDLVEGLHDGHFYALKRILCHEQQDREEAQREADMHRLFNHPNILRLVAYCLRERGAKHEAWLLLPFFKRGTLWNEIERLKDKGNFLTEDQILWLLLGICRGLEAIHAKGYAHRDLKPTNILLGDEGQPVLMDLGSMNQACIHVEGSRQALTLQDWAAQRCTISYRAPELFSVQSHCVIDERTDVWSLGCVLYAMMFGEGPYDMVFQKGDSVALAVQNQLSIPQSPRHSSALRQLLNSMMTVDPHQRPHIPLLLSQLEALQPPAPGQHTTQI
# Description: as §4
# [12] = target: TAOK2 (Homo sapiens, UniProt Q9UL54); experiment: TR-FRET Kinome TAOK2; type: binding; conditions: TAOK2 Invitrogen .2(Subs Conc)
# TAOK2, sequence (Q9UL54 whole entry): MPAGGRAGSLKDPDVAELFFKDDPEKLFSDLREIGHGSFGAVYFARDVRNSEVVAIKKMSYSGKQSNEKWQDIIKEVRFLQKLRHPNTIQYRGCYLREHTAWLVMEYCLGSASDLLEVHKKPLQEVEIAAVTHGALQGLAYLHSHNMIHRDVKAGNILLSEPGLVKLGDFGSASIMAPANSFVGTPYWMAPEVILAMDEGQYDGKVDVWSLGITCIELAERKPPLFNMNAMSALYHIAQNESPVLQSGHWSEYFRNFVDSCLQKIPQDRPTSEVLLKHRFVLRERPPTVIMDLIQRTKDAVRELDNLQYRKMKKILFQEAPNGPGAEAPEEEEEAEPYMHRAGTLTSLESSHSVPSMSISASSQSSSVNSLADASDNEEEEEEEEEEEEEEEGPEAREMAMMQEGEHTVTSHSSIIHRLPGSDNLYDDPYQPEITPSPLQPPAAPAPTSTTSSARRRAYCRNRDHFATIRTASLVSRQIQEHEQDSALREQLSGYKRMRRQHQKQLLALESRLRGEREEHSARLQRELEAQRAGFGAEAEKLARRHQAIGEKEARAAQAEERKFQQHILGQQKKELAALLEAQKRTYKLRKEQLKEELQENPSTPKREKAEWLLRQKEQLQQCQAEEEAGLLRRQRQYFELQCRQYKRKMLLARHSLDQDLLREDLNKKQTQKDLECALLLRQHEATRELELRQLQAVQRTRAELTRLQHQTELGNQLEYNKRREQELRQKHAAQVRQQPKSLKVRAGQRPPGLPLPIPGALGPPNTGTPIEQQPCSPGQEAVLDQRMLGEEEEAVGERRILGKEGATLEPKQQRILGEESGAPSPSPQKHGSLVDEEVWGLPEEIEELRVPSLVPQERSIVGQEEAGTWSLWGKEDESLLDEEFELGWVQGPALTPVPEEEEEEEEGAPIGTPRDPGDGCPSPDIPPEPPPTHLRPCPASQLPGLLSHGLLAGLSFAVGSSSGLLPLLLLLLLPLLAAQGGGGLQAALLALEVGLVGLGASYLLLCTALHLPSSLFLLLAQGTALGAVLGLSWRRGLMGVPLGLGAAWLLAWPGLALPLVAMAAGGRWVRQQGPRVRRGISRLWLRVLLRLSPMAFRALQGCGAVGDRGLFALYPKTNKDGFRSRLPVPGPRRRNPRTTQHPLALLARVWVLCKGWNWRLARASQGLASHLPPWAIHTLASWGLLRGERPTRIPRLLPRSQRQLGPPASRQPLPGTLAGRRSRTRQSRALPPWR
# Description: as §4
# [13] = target: Pim2 (Homo sapiens, UniProt Q9P1W9); experiment: TR-FRET Kinome Pim2; type: binding; conditions: Pim2 Millipore .025(Subs Conc)
# Description: as §4
# [14] = target: MAP3K10 (Homo sapiens, UniProt Q02779); experiment: TR-FRET Kinome MAP3K10; type: binding; conditions: MAP3K10 Invitrogen .005(Subs Conc)
# MAP3K10, sequence (Q02779 whole entry): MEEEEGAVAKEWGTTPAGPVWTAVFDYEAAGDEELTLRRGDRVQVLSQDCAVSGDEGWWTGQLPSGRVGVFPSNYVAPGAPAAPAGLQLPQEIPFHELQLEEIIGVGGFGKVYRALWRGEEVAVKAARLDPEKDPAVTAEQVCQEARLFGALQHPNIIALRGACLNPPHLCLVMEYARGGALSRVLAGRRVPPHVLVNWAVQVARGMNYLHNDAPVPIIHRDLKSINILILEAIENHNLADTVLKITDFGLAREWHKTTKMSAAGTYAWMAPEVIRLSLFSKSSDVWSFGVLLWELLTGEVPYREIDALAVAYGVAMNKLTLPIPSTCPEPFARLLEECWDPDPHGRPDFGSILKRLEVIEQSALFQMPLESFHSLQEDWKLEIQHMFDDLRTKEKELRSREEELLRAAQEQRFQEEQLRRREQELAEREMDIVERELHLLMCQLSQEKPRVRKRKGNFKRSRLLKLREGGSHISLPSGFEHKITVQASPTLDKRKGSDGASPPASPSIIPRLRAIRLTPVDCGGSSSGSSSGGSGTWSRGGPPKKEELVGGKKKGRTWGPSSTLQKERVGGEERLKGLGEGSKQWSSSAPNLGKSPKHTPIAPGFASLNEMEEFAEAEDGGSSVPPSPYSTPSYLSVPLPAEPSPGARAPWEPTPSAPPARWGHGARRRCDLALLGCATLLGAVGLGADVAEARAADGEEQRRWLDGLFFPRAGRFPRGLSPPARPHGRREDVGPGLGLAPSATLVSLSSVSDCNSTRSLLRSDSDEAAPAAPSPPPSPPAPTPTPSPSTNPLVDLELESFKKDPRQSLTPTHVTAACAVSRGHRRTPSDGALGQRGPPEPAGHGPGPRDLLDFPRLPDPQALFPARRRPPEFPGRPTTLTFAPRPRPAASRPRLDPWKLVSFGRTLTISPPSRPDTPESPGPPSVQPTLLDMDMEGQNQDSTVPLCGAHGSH
# Description: as §4
structure (smiles),measurement,setting,value
CC1(C)CCC(c2ccc(Cl)cc2)=C(CN2CCN(c3ccc(C(=O)NS(=O)(=O)c4ccc(N[C@H](CCN5CCOCC5)CSc5ccccc5)c(S(=O)(=O)C(F)(F)F)c4)cc3)CC2)C1 [ABT-263],Viability (% Inhibiton),[1]; ABT-263 0.003 uM,0%
same,Viability (% Inhibiton),[1]; ABT-263 0.01 uM,3%
same,Viability (% Inhibiton),[1]; ABT-263 0.03 uM,4%
same,Viability (% Inhibiton),[1]; ABT-263 0.1 uM,28%
same,Viability (% Inhibiton),[1]; ABT-263 0.3 uM,63%
same,Viability (% Inhibiton),[1]; ABT-263 1 uM,95%
same,Bim binding to Bcl-XL,"[2]; 0.15 μM ABT-263, 3 hr, irrespective of JAK2 mutational status",displaced
same,Viability (% Inhibiton),[3]; ABT-263 0.003 uM,0%
same,Viability (% Inhibiton),[3]; ABT-263 0.01 uM,0%
same,Viability (% Inhibiton),[3]; ABT-263 0.03 uM,1%
same,Viability (% Inhibiton),[3]; ABT-263 0.1 uM,14%
same,Viability (% Inhibiton),[3]; ABT-263 0.3 uM,55%
same,Viability (% Inhibiton),[3]; ABT-263 1 uM,95%
same,"caspase-3 activity, combination","[4]; JAKi-I 6 hr pretreatment followed by ABT-263, within four hours, cell lines harboring JAK2 V617F",synergistic induction
same,"caspase-3 activity, single agent",[4],neither JAKi-I nor ABT-263 alone induced caspase-3 activity
"CC(C)(C)c1nc2c3cc[nH]c(=O)c3c3cc(F)ccc3c2[nH]1 [JAKi-I, JAK inhibitor I]",abundance of total Bim protein,"[2]; 1 μM JAKi-I, 6 hr, HEL and K562 lysates",not altered
same,Bim in Bcl-XL immunoprecipitates,"[2]; 1 μM JAKi-I, 6 hr, in the presence of the JAK2 V617F mutation",enriched
same,Ki,[5],> 3.33 µM
same,Ki,[6],> 3.37 µM
same,Mcl-1 protein level,[7]; 24-hr time course,sharply declined
same,Mcl-1 protein (% control),"[7]; HEL, 1 uM Jaki-I, 2 hr",62 % control
same,Mcl-1 protein (% control),"[7]; HEL, 1 uM Jaki-I, 6 hr",45 % control
same,Mcl-1 protein (% control),"[7]; HEL, 1 uM Jaki-I, 24 hr",42 % control
same,Mcl-1 protein (% control),"[7]; K562, 1 uM Jaki-I, 2 hr",100 % control
same,Mcl-1 protein (% control),"[7]; K562, 1 uM Jaki-I, 6 hr",93 % control
same,Mcl-1 protein (% control),"[7]; K562, 1 uM Jaki-I, 24 hr",93 % control
same,Mcl-1 protein (% control),"[7]; MV4:11, 1 uM Jaki-I, 2 hr",75 % control
same,Mcl-1 protein (% control),"[7]; MV4:11, 1 uM Jaki-I, 6 hr",74 % control
same,Mcl-1 protein (% control),"[7]; MV4:11, 1 uM Jaki-I, 24 hr",65 % control
same,Mcl-1 protein (% control),"[7]; SET-2, 1 uM Jaki-I, 2 hr",68 % control
same,Mcl-1 protein (% control),"[7]; SET-2, 1 uM Jaki-I, 6 hr",50 % control
same,Mcl-1 protein (% control),"[7]; SET-2, 1 uM Jaki-I, 24 hr",35 % control
same,Mcl-1 protein (% control),"[7]; UKE-1, 1 uM Jaki-I, 2 hr",50 % control
same,Mcl-1 protein (% control),"[7]; UKE-1, 1 uM Jaki-I, 6 hr",25 % control
same,Mcl-1 protein (% control),"[7]; UKE-1, 1 uM Jaki-I, 24 hr",22 % control
same,Mcl-1 protein stability,[7]; in the presence of cycloheximide (data not shown),not altered
same,Ki,[8],> 4.32 µM
same,BCLxl % Control,[9]; HEL cells,30.4093%
same,BCLxl Mean QTY,[9]; HEL cells,76.1
same,BCLxl % Control,[9]; K562 cells,93.9154%
same,BCLxl Mean QTY,[9]; K562 cells,98.4
same,BCLxl % Control,[9]; MV411 cells,101.412%
same,BCLxl Mean QTY,[9]; MV411 cells,30.8
same,BCLxl % Control,[9]; SET2 cells,19.4966%
same,BCLxl Mean QTY,[9]; SET2 cells,62.5
same,Bcl-XL transcript level,"[9]; following JAK inhibition, 6 hr",sharply declined
same,Ki,[10],626 nM
same,Ki,[11],> 5.41 µM
same,Ki,[12],> 6.61 µM
same,"caspase-3 activity, single agent",[4],neither JAKi-I nor ABT-263 alone induced caspase-3 activity
same,Ki,[13],2110 nM
same,Ki,[14],> 3.06 µM
